{"source": "patent EP1147134B1", "about": "“NOVEL POTASSIUM CHANNELS AND GENES ENCODING THESE POTASSIUM CHANNELS” (NEUROSEARCH A/S, priority 1999, dated 2000)", "key": {"KCNQ4": {"biological_target": "T1, KCNQ4 (Homo sapiens, UniProt P56696)", "T1 construct": "A complete cDNA was assembled and cloned into the oocyte expression vector PTLN; expressed in transfected cells; host or cells: Xenopus oocytes injected with capped cRNA from the PTLN vector", "T1 sequence (P56696 1-695)": "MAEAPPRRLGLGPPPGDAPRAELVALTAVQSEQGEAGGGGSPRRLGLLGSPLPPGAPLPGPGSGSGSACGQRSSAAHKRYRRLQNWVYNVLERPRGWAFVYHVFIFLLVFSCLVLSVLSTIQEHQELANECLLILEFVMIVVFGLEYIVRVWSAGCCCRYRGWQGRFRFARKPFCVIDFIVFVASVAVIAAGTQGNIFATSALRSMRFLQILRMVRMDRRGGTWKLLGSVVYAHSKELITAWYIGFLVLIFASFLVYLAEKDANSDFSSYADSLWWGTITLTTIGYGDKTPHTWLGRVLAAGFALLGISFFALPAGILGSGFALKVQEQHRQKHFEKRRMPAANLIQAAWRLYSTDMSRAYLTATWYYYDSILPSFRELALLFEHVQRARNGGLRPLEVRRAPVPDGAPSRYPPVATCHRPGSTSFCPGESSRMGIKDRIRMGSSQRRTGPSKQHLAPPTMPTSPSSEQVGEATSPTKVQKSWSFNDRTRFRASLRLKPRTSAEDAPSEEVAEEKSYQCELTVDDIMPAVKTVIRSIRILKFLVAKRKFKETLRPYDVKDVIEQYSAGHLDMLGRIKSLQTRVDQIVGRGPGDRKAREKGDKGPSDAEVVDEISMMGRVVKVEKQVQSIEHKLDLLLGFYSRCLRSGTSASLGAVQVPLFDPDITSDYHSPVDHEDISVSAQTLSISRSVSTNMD", "test": "Two-electrode voltage clamp of KCNQ4 currents in Xenopus oocytes", "type": "cell-based", "description": "(§1) KCNQ4 was expressed in Xenopus oocytes and its activity was investigated by two-electrode voltage clamping.\n(§2) After linearization of the KCNQ4-containing PTLN vector with Hpal, capped cRNA was transcribed in vitro using the mMessage mMachine cRNA synthesis kit (Ambion). Usually 5 - 15 ng of cRNA were injected into Xenopus oocytes previously isolated by manual defolliculation and short collagenase treatment. In co-expression experiments cRNAs were injected at a 1:1 ratio. Oocytes were kept at 17°C in modified Barth's solution (90 mM NaCl, 1 mM KCl, 0.41 mM CaCl2, 0.33 mM Ca(NO3)2, 0.82 mM MgSO4, 10 mM HEPES, 100 U penicillin-100 µg streptomycin/ml, pH 7.6).\n(§3) Standard two-electrode voltage-clamp measurements were performed at room temperature 2-4 days after injection using a Turbotec 05 amplifier (npi instruments, Tamm, Germany) and pClamp 5.5 software (Axon Instruments). Currents were usually recorded in ND98 solution (see Table 2). Solutions for Na^+ / K^+ replacement experiments were prepared from an appropriate mixture of solution KD100 (100 mM KCl) and ND100 (100 mM NaCl) to yield the stated concentrations of Na^+ and K^+. Linopirdine (RBI, Natick, MA) was prepared as a 100 mM stock solution in DMSO and added to a final concentration of 200 µM to ND98."}, "KCNQ2/KCNQ3 channels": {"test_system": "KCNQ2/KCNQ3 channels", "settings": "concentration of 200 µM; cited from earlier work"}, "KCNQ3/KCNQ4": {"biological_target": "T2, KCNQ3/KCNQ4 (Homo sapiens, UniProt O43525+P56696)", "T2 construct": "A complete cDNA was assembled and cloned into the oocyte expression vector PTLN; expressed in transfected cells; host or cells: Xenopus oocytes co-injected with KCNQ3 and KCNQ4 cRNA", "T2 sequence (P56696 1-695)": "T1 sequence (P56696 1-695)", "T2 sequence (O43525 1-872)": "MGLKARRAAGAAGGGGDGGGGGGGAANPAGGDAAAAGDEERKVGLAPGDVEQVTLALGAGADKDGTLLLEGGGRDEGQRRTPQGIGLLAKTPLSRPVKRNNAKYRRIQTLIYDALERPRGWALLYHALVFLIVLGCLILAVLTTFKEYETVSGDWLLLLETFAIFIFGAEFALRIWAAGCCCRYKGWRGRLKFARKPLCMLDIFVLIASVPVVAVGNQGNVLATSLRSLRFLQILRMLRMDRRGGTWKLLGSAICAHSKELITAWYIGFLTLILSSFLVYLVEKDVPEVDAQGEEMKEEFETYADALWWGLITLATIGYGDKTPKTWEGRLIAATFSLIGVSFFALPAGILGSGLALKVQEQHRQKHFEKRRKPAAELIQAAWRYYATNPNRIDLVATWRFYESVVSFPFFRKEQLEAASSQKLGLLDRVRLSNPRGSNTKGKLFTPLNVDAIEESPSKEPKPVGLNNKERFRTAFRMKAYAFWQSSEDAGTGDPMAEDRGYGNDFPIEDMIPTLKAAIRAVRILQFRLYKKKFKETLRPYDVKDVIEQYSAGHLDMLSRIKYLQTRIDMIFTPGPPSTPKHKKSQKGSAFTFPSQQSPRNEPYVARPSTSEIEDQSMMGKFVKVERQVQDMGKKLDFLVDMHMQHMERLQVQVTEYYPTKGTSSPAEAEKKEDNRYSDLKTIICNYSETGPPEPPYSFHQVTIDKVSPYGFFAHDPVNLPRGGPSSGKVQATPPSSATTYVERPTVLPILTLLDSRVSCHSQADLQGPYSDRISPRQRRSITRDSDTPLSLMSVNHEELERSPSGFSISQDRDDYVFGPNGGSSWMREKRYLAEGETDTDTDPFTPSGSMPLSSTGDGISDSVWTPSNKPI", "test": "Two-electrode voltage clamp of Xenopus oocytes co-injected with KCNQ3 and KCNQ4 cRNA", "type": "cell-based", "settings": "200 µM Linopirdine in ND98, currents measured at +40 mV, cRNAs 1:1", "description": "as §1, §2, §3"}}, "data": [{"smiles": "O=C1N(c2ccccc2)c2ccccc2C1(Cc1ccncc1)Cc1ccncc1", "note": "[Linopirdine, 1,3-dihydro-1-phenyl-3,3-bis(4-pyridylmethyl)-2H-indol-2-one]", "values": [{"measurement": "inhibition at 200 µM", "setting": "KCNQ4; 200 µM Linopirdine in ND98, currents measured at +40 mV, Xenopus oocytes", "value": "~30", "unit": "%"}, {"measurement": "time until steady-state inhibition was reached, KCNQ4 currents", "setting": "KCNQ4; upon addition of 200 µM Linopirdine", "value": "~ 1 min"}, {"measurement": "inhibition of KCNQ2/KCNQ3 channels", "setting": "KCNQ2/KCNQ3 channels", "value": "nearly completely inhibits"}, {"measurement": "inhibition with KCNQ3/KCNQ4 co-expression", "setting": "KCNQ3/KCNQ4", "value": "≈ 75%"}]}]}
